Test in all cases: relative viability (nuclei count vs DMSO), 5 days (fraction); higher = more cells survive
Compound in test [1]: Cc1ccc(-n2nc(C(C)(C)C)cc2NC(=O)Nc2ccc(OCCN3CCOCC3)c3ccccc23)cc1 [Doramapimod] + CC(=O)Nc1cccc(-n2c(=O)n(C3CC3)c(=O)c3c(Nc4ccc(I)cc4F)n(C)c(=O)c(C)c32)c1 [Trametinib] (partner 0.02 µM)
The procedure, abridged:
(§1)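 Relative viability is defined as nuclei in treated wells over nuclei in vehicle wells. Duplicate plates were run and medians reported. Lung cancer cell lines in 1536-well plates were dosed by pin tool one day after seeding, with one drug or with a fixed anchor-drug dose plus five library-drug doses (not always all listed) in √10 steps, and nuclei were counted after 5 days.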

Compound in test [2]: C1=CC=C2C(=C1)C=CC(=C2SSC3=C(C=CC4=CC=CC=C43)O)O [IPA-3] + Cc1cc(Nc2cc(N3CCN(C)CC3)nc(Sc3ccc(NC(=O)C4CC4)cc3)n2)n[nH]1 [Tozasertib] (partner 0.1 µM)
The procedure, abridged: as §1

Compound in test [3]: Cn1c(Nc2ccc(C(F)(F)F)cc2)nc2cc(Oc3ccnc(-c4ncc(C(F)(F)F)[nH]4)c3)ccc21 [RAF265] + Cc1nc(Nc2ncc(C(=O)Nc3c(C)cccc3Cl)s2)cc(N2CCN(CCO)CC2)n1 [Dasatinib] (partner 0.075 µM)
The procedure, abridged:
as §1

Compound in test [4]: Cc1ccc(-n2nc(C(C)(C)C)cc2NC(=O)Nc2ccc(OCCN3CCOCC3)c3ccccc23)cc1 [Doramapimod] + Nc1nc2[nH]cc(CCc3ccc(C(=O)N[C@@H](CCC(=O)O)C(=O)O)cc3)c2c(=O)[nH]1 [Pemetrexed] (partner 0.2 µM)
An outline of the steps: as §1

Seven cell lines from the supplement of paper PMC10307832 can be followed below.

Turning to NCI-H2126, the relative viability in test [1] (first compound 0.02 µM) stood at 0.551; in test [1] (first compound 0.06325 µM), 0.546; in test [1] (first compound 0.2 µM), 0.571; in test [1] (first compound 0.6325 µM) it was 0.637; in test [1] (first compound 2 µM) it was 0.524; in test [2] (first compound 0.2 µM), 0.922. Also, the relative viability in test [2] (first compound 0.6325 µM) was 0.78; in test [2] (first compound 2 µM) it was 0.875; in test [2] (first compound 6.325 µM), 0.842; in test [2] (first compound 20 µM) it was 0.872; in test [3] (first compound 0.01 µM), 0.716; in test [3] (first compound 0.03162 µM), 0.656. Further, the relative viability in test [3] (first compound 0.1 µM) came to 0.622; in test [3] (first compound 0.3162 µM), 0.464; in test [3] (first compound 1 µM) it was 0.354; in test [4] (first compound 0.02 µM), 0.69; in test [4] (first compound 0.06325 µM), 0.667; in test [4] (first compound 0.2 µM), 0.605. Further, the relative viability in test [4] (first compound 0.6325 µM) was found to be 0.667; in test [4] (first compound 2 µM), 0.642.

Consider NCI-H2170, for which the relative viability in test [1] (first compound 0.02 µM) was found to be 0.854; in test [1] (first compound 0.06325 µM), 1.02; in test [1] (first compound 0.2 µM) it was 0.934; in test [1] (first compound 0.6325 µM), 0.981; in test [1] (first compound 2 µM), 0.825; in test [2] (first compound 0.2 µM), 0.822. In addition, the relative viability was 0.777 in test [2] (first compound 0.6325 µM); 0.675 in test [2] (first compound 2 µM); 0.644 in test [2] (first compound 6.325 µM); 0.769 in test [2] (first compound 20 µM); 0.663 in test [3] (first compound 0.01 µM); 0.474 in test [3] (first compound 0.03162 µM). In addition, the relative viability is 0.539 in test [3] (first compound 0.1 µM); 0.241 in test [3] (first compound 0.3162 µM); 0.432 in test [3] (first compound 1 µM); 0.278 in test [4] (first compound 0.02 µM); 0.261 in test [4] (first compound 0.06325 µM); 0.256 in test [4] (first compound 0.2 µM). Further, the values for the relative viability in test [4] (first compound 0.6325 µM) and in test [4] (first compound 2 µM) were 0.28 and 0.259, respectively.

Regarding NCI-H2228, the relative viability in test [1] (first compound 0.02 µM) is 0.391; in test [1] (first compound 0.06325 µM) it was 0.44; in test [1] (first compound 0.2 µM) it was 0.46; in test [1] (first compound 0.6325 µM), 0.519; in test [1] (first compound 2 µM), 0.484; in test [2] (first compound 0.2 µM), 0.245. For the same cell line, the relative viability in test [2] (first compound 0.6325 µM) was 0.255; in test [2] (first compound 2 µM), 0.29; in test [2] (first compound 6.325 µM), 0.301; in test [2] (first compound 20 µM), 0.294; in test [3] (first compound 0.01 µM), 0.484; in test [3] (first compound 0.03162 µM), 0.535. Also, the relative viability in test [3] (first compound 0.1 µM) was 0.397; in test [3] (first compound 0.3162 µM), 0.179; in test [3] (first compound 1 µM), 0.139; in test [4] (first compound 0.02 µM), 0.339; in test [4] (first compound 0.06325 µM) it was 0.354; in test [4] (first compound 0.2 µM) it was 0.322. The relative viability in test [4] (first compound 0.6325 µM) turned out to be 0.393; in test [4] (first compound 2 µM), 0.308.

As to NCI-H2342, the relative viability in test [1] (first compound 0.02 µM) is 0.838; in test [1] (first compound 0.06325 µM) it was 0.844; in test [1] (first compound 0.2 µM), 0.754; in test [1] (first compound 0.6325 µM) it was 0.817; in test [1] (first compound 2 µM), 0.847; in test [2] (first compound 0.2 µM), 0.526. For the same cell line, the relative viability in test [2] (first compound 0.6325 µM) turned out to be 0.505; in test [2] (first compound 2 µM), 0.6; in test [2] (first compound 6.325 µM), 0.57; in test [2] (first compound 20 µM), 0.596; in test [3] (first compound 0.01 µM), 0.319; in test [3] (first compound 0.03162 µM), 0.349. The relative viability in test [3] (first compound 0.1 µM) came out at 0.298; in test [3] (first compound 0.3162 µM) it was 0.276; in test [3] (first compound 1 µM), 0.288; in test [4] (first compound 0.02 µM), 0.733; in test [4] (first compound 0.06325 µM), 0.759; in test [4] (first compound 0.2 µM), 0.789. In addition, the relative viability in test [4] (first compound 0.6325 µM) was determined as 0.788; in test [4] (first compound 2 µM), 0.784.

For the cell line NCI-H2347, the relative viability in test [1] (first compound 0.02 µM) worked out at 0.281; in test [1] (first compound 0.06325 µM) it was 0.23; in test [1] (first compound 0.2 µM) it was 0.249; in test [1] (first compound 0.6325 µM), 0.26; in test [1] (first compound 2 µM), 0.261; in test [2] (first compound 0.2 µM), 0.585. The relative viability is 0.598 in test [2] (first compound 0.6325 µM); 0.614 in test [2] (first compound 2 µM); 0.593 in test [2] (first compound 6.325 µM); 0.656 in test [2] (first compound 20 µM); 0.358 in test [3] (first compound 0.01 µM); 0.331 in test [3] (first compound 0.03162 µM). The relative viability in test [3] (first compound 0.1 µM) turned out to be 0.341; in test [3] (first compound 0.3162 µM), 0.213; in test [3] (first compound 1 µM) it was 0.237; in test [4] (first compound 0.02 µM) it was 0.42; in test [4] (first compound 0.06325 µM), 0.443; in test [4] (first compound 0.2 µM), 0.444. Also, the relative viability is 0.436 in test [4] (first compound 0.6325 µM) and 0.376 in test [4] (first compound 2 µM).

NCI-H2405: the relative viability was found to be 0.613 in test [1] (first compound 0.02 µM); 0.618 in test [1] (first compound 0.06325 µM); 0.612 in test [1] (first compound 0.2 µM); 0.705 in test [1] (first compound 0.6325 µM); 0.581 in test [1] (first compound 2 µM); 0.796 in test [2] (first compound 0.2 µM). In addition, the relative viability in test [2] (first compound 0.6325 µM) came to 0.755; in test [2] (first compound 2 µM) it was 0.727; in test [2] (first compound 6.325 µM) it was 0.748; in test [2] (first compound 20 µM), 0.774; in test [3] (first compound 0.01 µM), 0.242; in test [3] (first compound 0.03162 µM), 0.194. The relative viability in test [3] (first compound 0.1 µM) was 0.191; in test [3] (first compound 0.3162 µM), 0.159; in test [3] (first compound 1 µM), 0.193; in test [4] (first compound 0.02 µM), 1.13; in test [4] (first compound 0.06325 µM), 1.13; in test [4] (first compound 0.2 µM), 1.02. Also, the relative viability in test [4] (first compound 0.6325 µM) was determined as 1.18; in test [4] (first compound 2 µM) it was 1.01.

For the cell line NCI-H3122, the relative viability in test [1] (first compound 0.02 µM) amounted to 0.26; in test [1] (first compound 0.06325 µM), 0.206; in test [1] (first compound 0.2 µM), 0.216; in test [1] (first compound 0.6325 µM) it was 0.219; in test [1] (first compound 2 µM) it was 0.279; in test [2] (first compound 0.2 µM), 0.431. The relative viability amounted to 0.4 in test [2] (first compound 0.6325 µM); 0.381 in test [2] (first compound 2 µM); 0.509 in test [2] (first compound 6.325 µM); 0.428 in test [2] (first compound 20 µM); 0.463 in test [3] (first compound 0.01 µM); 0.937 in test [3] (first compound 0.03162 µM). Besides, the relative viability was 0.904 in test [3] (first compound 0.1 µM); 0.669 in test [3] (first compound 0.3162 µM); 0.521 in test [3] (first compound 1 µM); 0.197 in test [4] (first compound 0.02 µM); 0.207 in test [4] (first compound 0.06325 µM); 0.187 in test [4] (first compound 0.2 µM). The relative viability in test [4] (first compound 0.6325 µM) came to 0.207; in test [4] (first compound 2 µM), 0.196.
